Laboratory results: paper PMC3914206

Key:
[1] = target: T1, panel of 442 kinases (Homo sapiens, UniProt O75747); assay type: binding; conditions: Compound Concentration 10 µM
T1 construct: purchased KINOMEscan
T1 sequence (O75747 1-1486): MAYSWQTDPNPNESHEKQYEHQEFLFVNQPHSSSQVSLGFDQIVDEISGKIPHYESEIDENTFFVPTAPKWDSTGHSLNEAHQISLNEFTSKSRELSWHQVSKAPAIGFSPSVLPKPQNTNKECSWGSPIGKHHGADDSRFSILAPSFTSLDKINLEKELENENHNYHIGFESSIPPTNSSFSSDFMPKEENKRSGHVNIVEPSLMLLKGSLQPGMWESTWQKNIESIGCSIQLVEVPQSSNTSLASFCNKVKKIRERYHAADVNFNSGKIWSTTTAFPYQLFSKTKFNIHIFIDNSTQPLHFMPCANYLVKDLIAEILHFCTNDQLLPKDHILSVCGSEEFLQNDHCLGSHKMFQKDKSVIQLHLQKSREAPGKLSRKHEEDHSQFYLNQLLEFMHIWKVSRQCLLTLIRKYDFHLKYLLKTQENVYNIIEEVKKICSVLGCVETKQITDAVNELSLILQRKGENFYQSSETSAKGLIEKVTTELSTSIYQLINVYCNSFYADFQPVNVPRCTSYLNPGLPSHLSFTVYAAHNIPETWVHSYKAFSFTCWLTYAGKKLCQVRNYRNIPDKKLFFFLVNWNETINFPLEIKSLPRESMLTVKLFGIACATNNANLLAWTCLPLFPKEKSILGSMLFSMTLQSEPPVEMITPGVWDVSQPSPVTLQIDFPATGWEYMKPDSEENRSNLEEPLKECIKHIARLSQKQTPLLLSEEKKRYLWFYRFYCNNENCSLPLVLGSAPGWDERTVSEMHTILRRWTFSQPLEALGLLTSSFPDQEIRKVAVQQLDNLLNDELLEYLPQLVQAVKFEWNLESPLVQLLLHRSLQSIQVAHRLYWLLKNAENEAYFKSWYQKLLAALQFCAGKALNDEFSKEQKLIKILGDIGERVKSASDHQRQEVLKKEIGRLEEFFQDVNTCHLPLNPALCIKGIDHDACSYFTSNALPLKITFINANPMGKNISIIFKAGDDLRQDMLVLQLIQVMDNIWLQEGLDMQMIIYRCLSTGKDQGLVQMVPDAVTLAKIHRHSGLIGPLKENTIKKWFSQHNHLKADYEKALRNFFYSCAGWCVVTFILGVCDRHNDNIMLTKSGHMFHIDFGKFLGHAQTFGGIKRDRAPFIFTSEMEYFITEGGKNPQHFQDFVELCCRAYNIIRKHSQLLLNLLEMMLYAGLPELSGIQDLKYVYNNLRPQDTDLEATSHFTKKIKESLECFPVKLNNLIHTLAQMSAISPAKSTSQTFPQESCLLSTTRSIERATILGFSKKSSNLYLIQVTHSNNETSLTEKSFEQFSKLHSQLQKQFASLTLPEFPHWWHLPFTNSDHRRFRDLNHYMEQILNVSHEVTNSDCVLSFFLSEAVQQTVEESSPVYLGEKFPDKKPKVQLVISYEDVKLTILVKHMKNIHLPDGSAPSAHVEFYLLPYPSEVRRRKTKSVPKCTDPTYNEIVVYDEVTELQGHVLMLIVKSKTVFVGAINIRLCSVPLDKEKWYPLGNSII
Excerpt: (§1) We assessed the selectivity of members of this scaffold using the KINOMEscan methodology across a near comprehensive panel of 442 kinases [[18,27]].

[2] = target: T2, panel of 442 kinases (Homo sapiens, UniProt Q00526); assay type: binding; conditions: Compound Concentration 10 µM
T2 construct: purchased KINOMEscan
T2 sequence (Q00526 whole entry): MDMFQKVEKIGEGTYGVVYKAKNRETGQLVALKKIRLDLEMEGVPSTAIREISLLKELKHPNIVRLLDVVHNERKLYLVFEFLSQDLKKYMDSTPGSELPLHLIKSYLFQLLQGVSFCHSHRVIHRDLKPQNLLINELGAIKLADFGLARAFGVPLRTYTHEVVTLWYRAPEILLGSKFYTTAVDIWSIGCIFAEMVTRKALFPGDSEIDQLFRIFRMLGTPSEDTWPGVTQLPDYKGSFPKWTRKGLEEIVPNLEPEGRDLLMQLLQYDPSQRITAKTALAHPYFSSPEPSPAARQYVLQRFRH
Excerpt: as §1

SMILES | KINOMEscan: PIK3C2G [1] | KINOMEscan: CDK3 [2]
CCOc1cc(C(=O)N2CCC(N3CCN(C)CC3)CC2)ccc1Nc1ncc2c(n1)N(C1CCCC1)c1ccccc1C(=O)N2C [Compound 26] | 99 | 100
COc1cc(C(=O)N2CCC(N3CCN(C)CC3)CC2)ccc1Nc1ncc2c(n1)N(C1CCCC1)c1ccccc1C(=O)N2C [Compound 25, 11-cyclopentyl-2-((2-methoxy-4-(4-(4-methylpiperazin-1-yl)piperidine-1-carbonyl)phenyl)amino)-5-methyl-5H-benzo[e]pyrimido[5,4-b][1,4]diazepin-6(11H)-one] | 100 | 100
COc1cc(C(=O)N2CCC(N3CCN(C)CC3)CC2)ccc1Nc1ncc2c(n1)N(C)c1ccccc1C(=O)N2C [15 (LRRK2-IN-1)] | 100 | 100
